Data: paper PMC11475408, “All‐Inorganic Polyoxometalates Act as Superchaotropic Membrane Carriers” (Advanced Materials (Deerfield Beach, Fla.), 2023)
pEC50: −log10 of the molar value. Read-outs that look alike come from different tables or passages of the source.

How the values were obtained:
[1] = tested on: protamine; assay: ITC, POM into protamine; type: binding; details: 10 mM Tris, pH 7.4, value is Ka divided by 10^7
Procedure: All experiments were performed with a VP‐ITC MicroCalorimeter from MicroCal, Int,. at atmospheric pressure and 298.15 K. Solutions were degassed and thermostatic prior to the titration experiments in a ThermoVac accessory. A constant volume of POM ([PVW11]^4‒ or [SiMoW11]^4‒) (10 µL per injection) was injected into the oligopeptide solution (heptaArg, protamine, polyArg or heptaLys) in 10 mM Tris, pH 7.4 to determine the apparent binding affinity of [PVW11]^4‒ and [SiMoW11]^4‒ with the oligopeptides. Dilution heats were determined by titration of the POM into buffer and subtracted from the reaction heat. The neat reaction heat was fitted with Origin 7.0 software by using the “one‐set‐of‐sites” model to obtain the complex stability constant (K a) and molar reaction enthalpy (∆H°). The free energy (∆G°) and entropy changes (∆S°) were obtained according to the relation: ∆G° = −RTlnK a = ∆H°−T∆S°.
4. Supramolecular interactions
Figure S10. Microcalorimetric titrations in 10 mM Tris, pH 7.4: Raw ITC data (top) for the sequential injections of POM solution into an oligoarginine solution, and apparent reaction heats (bottom) obtained from the integration of the calorimetric traces. […]
values and ± 0.5 kcal mol‒1 for ΔH and TΔS (duplicate measurements). Note that none of these interactions lead to any precipitation or aggregates, confirmed by the absence of any detectable signal by DLS. […]

[2] = Hydrolysis/stability of POMs in buffer by NMR; details: for Hydrolysis/stability pH 5.5: 10 mM Mes, 107 mM NaCl, long-term (24 h and longer)
Procedure: First, their long‐term (24 h and longer) fate in aqueous solution (slightly acidic and neutral) was investigated by applying the active NMR nuclei in their composition (Table S9 and Figures S24–S37, see the Supporting Information for details).
NMR-spectroscopic characterization of identity and stability
NMR spectroscopy for all POMs tested was performed under experimental conditions.

[3] = CF transport assay in EYPC⊃CF vesicles (carrier activity); type: biochemical; parameters: key to Carrier activity: ‐ – ‐: No detectable activity at pH 5.5 and 7.4; details: for heptaLys Ymax / pEC50 / HeptaArg Y max / PolyArg Y max / Protamine Y max / HeptaArg Ymax, pH 5.5 / PolyArg Ymax, pH 5.5 / Protamine Ymax, pH 5.5: CF assay; for heptaLys Ymax: 13 µM phospholipids; for heptaLys Ymax / HeptaArg Y max / PolyArg Y max / Protamine Y max / HeptaArg Ymax, pH 5.5: ±2% error (SD); for HeptaArg Y max: 13 µM lipid, 10 mM Hepes or Tris, 10 min, Hill fit, triplicates; for heptaLys E / PolyArg E (activation efficiency) / Protamine E (activation efficiency) / HeptaArg E (activation efficiency) / HeptaArg E, pH 5.5 / PolyArg E, pH 5.5 / Protamine E, pH 5.5: f = 20.6; for heptaLys E / PolyArg E (activation efficiency) / Protamine E (activation efficiency) / HeptaArg E (activation efficiency) / HeptaArg E, pH 5.5: 10% error; for HeptaArg E (activation efficiency): E = Ymax(pEC50/f); for Transport activity (in words): EYPC⊃CF vesicles, neutral pH, carrier then cargo; for Onset for transport activity (carrier concentration): vesicles, heptaArg dose-response curves (Figure 2b)
Text: The capability of POMs to act as membrane carriers was explored first in large unilamellar vesicles (LUVs) loaded with carboxyfluorescein (CF).^[ [54], [55] ^] We selected […] representative cationic peptides, heptaarginine (heptaArg), heptalysine (heptaLys), protamine, and polyarginine (polyArg), as test cargos. Inside the LUVs, the CF dye was encapsulated at self‐quenching concentrations. With a suitable carrier, heptaArg can be taken up into the vesicles, bind with entrapped CF, and shuttle back to the exterior, diluting the previously quenched CF, and thereby restoring its fluorescence (Figure 1c). In the time‐resolved fluorescence experiments (Figure 2a), to test whether a particular POM acts as molecular carrier, the CF emission was continuously monitored during the addition of the inorganic carrier (t = 60 s) and after injection of the impermeable selected cargo (t = 120 s). Toward the end of the experiment (t = 600 s), the surfactant Triton X‐100 was added to release all the entrapped CF and allow normalization of the intensity data.
A thin lipid film was prepared by evaporating a lipid solution of EYPC (egg yolk phosphatidylcholine, 25 mg) in CHCl3 (1 mL) with a stream of nitrogen and then dried in vacuo overnight. The dry film was rehydrated with 1 mL buffer (50 mM CF, 10 mM Hepes, pH 7.4 or 50 mM CF, 10 mM Tris, pH 7.4) for 30 min at room temperature, subjected to freeze–thaw cycles (7 times) and extrusions (15 times) through a polycarbonate membrane (pore size 100 nm). Extravesicular components were removed by size exclusion chromatography (NAP‐25 column Sephadex G‐25 DNA grade) with 10 mM Hepes, 107 mM NaCl, pH 7.4, or 10 mM Hepes, 107 mM NaCl, pH 7.4. Phospholipid concentration was calculated by the Stewart assay.^[ [81] ^]
Acidic vesicles were prepared analogously but the rehydration and elution buffer were 50 mM CF, 10 mM Mes, pH 5.5 and 10 mM Mes, 107 mM NaCl, pH 5.5. respectively.
Vesicles stock solutions (5–10 µL) were diluted with the corresponding buffer in a disposable plastic cuvette and gently stirred (total volume 2000 µL, final lipid concentration 13 µM). Carboxyfluorescein fluorescence was monitored at λ em = 517 nm (λ ex = 492 nm) as a function of time after addition of POMs at 60 s, analyte at 120 s and Triton X‐100 (24 µL 1.2% wt/vol) at 600 s to lyse the vesicles, for calibration. Fluorescence intensities were normalized to fractional emission as (1) It=It−I0/I∞−I0 where I 0 = I t before POM addition and […] after lysis. For Hill analysis, I t before lysis was defined as transport activity, Y, and plotted against POM concentration, c, and fitted to the Hill Equation (2), to afford the activity in absence of POM, Y 0, the maximal activity, Y max, the concentration needed to achieve 50% of maximal activity, EC 50, and the Hill coefficient, n (2) Y=Y0+Ymax−Y0/1+EC50/c^n
In the transport measurements, where different carriers (POMs) are tested with the same cargo, the activator efficiency (E) is determined by their capacity to transport the impermeable cargo to the intravesicular region and is characterized by Y max, its maximal activity, and EC 50, the effective activator concentration. An ideal carrier reaches high Y max at low EC 50. To count both factors, the activator efficiency is defined as (3) E=YmaxpEC50/f were pEC 50 is the negative logarithm of the EC 50, and f a scaling factor, which was set to 20.6 to calibrate the highest (previously known) activation efficiency, E, as 10.^[ [55] ^]

[4] = 3 mM POM, 10 mM Mes pH 5.5, 31P NMR integration
[5] = 3 mM POM, 10 mM Tris-HCl pH 7.5, 31P NMR integration
[6] = EYPC (zwitterionic), heptaLys cargo
[7] = EYPC (zwitterionic), heptaLys cargo, 5% error (SD), read-out: heptaLys EC50
[8] = EYPC LUVs, 10 µM heptaArg, 107 mM NaCl, pH 7.4
[9] = EYPC LUVs, 0.1 µM polyArg, pH 7.4, 5% error (SD), read-out: PolyArg EC 50
[10] = EYPC LUVs, 0.1 µM polyArg, pH 7.4
[11] = EYPC LUVs, 1 µM protamine, pH 7.4, 5% error (SD), read-out: Protamine EC 50
[12] = EYPC LUVs, 1 µM protamine, pH 7.4
[13] = EYPC LUVs, 10 µM heptaArg, pH 7.4, carrier concentration for 50% of Ymax, 5% error (SD), read-out: HeptaArg EC 50
[14] = EYPC vesicles, 10 µM heptaArg, 10 mM Mes, 107 mM NaCl, pH 5.5
[15] = EYPC vesicles, heptaArg cargo, 10 mM Mes, 107 mM NaCl, pH 5.5, 5% error (SD), read-out: HeptaArg EC50, pH 5.5
[16] = EYPC vesicles, polyArg cargo, 10 mM Mes, 107 mM NaCl, pH 5.5
[17] = EYPC vesicles, polyArg cargo, pH 5.5, read-out: PolyArg EC50, pH 5.5
[18] = EYPC vesicles, protamine cargo, 10 mM Mes, 107 mM NaCl, pH 5.5
[19] = EYPC vesicles, protamine cargo, pH 5.5, read-out: Protamine EC50, pH 5.5
[20] = EYPC LUVs, 10 µM heptaArg, pH 7.4
[21] = EYPC vesicles, protamine, pH 5.5

Substance | Ka/ 107, protamine [1] [M‒1] | % monolacunary [PVWVI11O39]7‒ formed, Mes pH 5.5 after 1 day [2, 4] [%] | % parent anion, Mes pH 5.5 after 1 day [2, 4] [%] | Hydrolysis/stability pH 5.5 ([2]; NMR) | heptaLys Ymax [3, 6] [%] | pEC50 [3, 7] | HeptaArg Y max [3, 8] [%] | pEC50 [3, 9] | PolyArg Y max [3, 10] [%] | pEC50 [3, 11] | Protamine Y max [3, 12] [%] | pEC50 [3, 13] | HeptaArg Ymax, pH 5.5 [3, 14] [%] | pEC50 [3, 15] | PolyArg Ymax, pH 5.5 [3, 16] [%] | pEC50 [3, 17] | Protamine Ymax, pH 5.5 [3, 18] [%] | pEC50 [3, 19] | heptaLys E [3, 6] | Transport activity (in words) [3] | further results
K4[α‐P^VV^VW^VI 11O40]·4H2O [[PVW11]^4‒] | 25 | 1 | 99 | Stable | 62 | 4.42 | 84 | 4.92 | 88 | 4.39 | 88 | 4.31 | 79 | 4.55 | 91 | 5.30 | 79 | 4.72 | 4.3 | triggered the desired increase in fluorescence characteristic for cargo transport | % monolacunary [PVWVI11O39]7‒ formed, Mes pH 5.5 after 5 days [2, 4]: 1%; % parent anion, Mes pH 5.5 after 5 days [2, 4]: 99%; % parent (active) anion, Mes pH 5.5 freshly prepared ([2]; 3 mM POM, 10 mM Mes pH 5.5, 31P NMR signal integration, appr. 3 h after dissolution): 99%; % parent anion, Tris-HCl pH 7.5 after 1 day [2, 5]: 71%; % parent anion, Tris-HCl pH 7.5 after 5 days [2, 5]: 68%; PolyArg E (activation efficiency) [3, 10]: 8.2; Protamine E (activation efficiency) [3, 12]: 5.9; HeptaArg E (activation efficiency) [3, 20]: 5.3; HeptaArg E, pH 5.5 ([3]; EYPC vesicles, pH 5.5): 5.9; PolyArg E, pH 5.5 ([3]; EYPC vesicles, pH 5.5): 10.1; Protamine E, pH 5.5 [3, 21]: 6.6; Onset for transport activity (carrier concentration) [3]: around 1 µM
K4[α‐Si^IVMo^VIW^VI 11O40]·24H2O [[SiMoW11]^4‒] | 1.7 |  |  | Stable | 54 | 4.66 | 66 | 4.89 | 94 | 4.72 | 72 | 4.77 | 66 | 5.05 | 86 | 5.30 | 80 | 4.85 | 4.4 | triggered the desired increase in fluorescence characteristic for cargo transport | Solution stability in Mes pH 5.5 (183W NMR) ([2]; 10 mM POM, 33 mM Mes pH 5.5 (final pH 5), only signals of intact anion, acquisition 60 h): solution stability for up to 60 h; % parent anion, Tris-HCl pH 7.5 (183W NMR) ([2]; 10 mM POM, 33 mM Tris pH 7.5 (final pH 6.9), 183W NMR signal intensities, acquisition 60 h): 45%; Hydrolysis at pH 7.5 (fraction hydrolysed) ([2]; neutral buffer pH 7.5, high concentration, NMR, after 24 h): 45%; PolyArg E (activation efficiency) [3, 10]: 8.6; Protamine E (activation efficiency) [3, 12]: 6.0; HeptaArg E (activation efficiency) [3, 20]: 5.7; HeptaArg E, pH 5.5 ([3]; EYPC vesicles, pH 5.5): 6.6; PolyArg E, pH 5.5 ([3]; EYPC vesicles, pH 5.5): 9.7; Protamine E, pH 5.5 [3, 21]: 7.3; Onset for transport activity (carrier concentration) [3]: around 1 µM
Na3[α‐P^VW^VI 12O40]·nH2O [[PW12]^3‒] |  | 61 | 5 | to [P^VW^VI 11O39]^7‒ |  |  |  |  |  |  |  |  |  |  |  |  |  |  |  | neither an interaction with the membrane nor cargo transport | % monolacunary [PVWVI11O39]7‒ formed, Mes pH 5.5 freshly prepared [2, 4]: 61%; % parent anion, NaOAc/HOAc pH 4 after 1 day ([2]; 3 mM POM, 10 mM NaOAc/HOAc pH 4, 31P NMR integration): 28%; Carrier activity ([3]; EYPC vesicles, pH 5.5 and 7.4, cargos heptaArg, protamine, polyArg ([AlMo6]: heptaArg and protamine only)): ‐ – ‐ ^k) , ^l)
